For this assay, the target named is TrkA (Homo sapiens (Human), UniProt P04629). Briefly: TrkA Omnia Assay. The assay is classed as biochemical. The settings on record: averaged IC50; 20 nM enzyme, 500 μM ATP, 10 μM peptide substrate. Put shortly: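 Continuous fluorescent kinase read-out (ex 360 nm, em 485 nm) over 70 min, with initial rates fitted to 4- or 5-parameter logistic curves for IC50. Final conditions: 500 μM ATP, 10 μM Omnia Tyr Peptide #4, 20 nM TrkA, MOPS pH 7.5 buffer with MgCl2 and Triton X-100; enzyme and compound preincubated 10 min at ambient temperature.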

This note sets out measurements from US10323022B2, “Pyrrolidinyl urea, pyrrolidinyl thiourea and pyrrolidinyl guanidine compounds as TrkA kinase inhibitors” (Array BioPharma Inc., priority 2011, dated 2019).

Bounds are passed on as bounds.

The term IC50 denotes the midpoint of a concentration-inhibition curve.

TrkA, sequence (P04629 33-796): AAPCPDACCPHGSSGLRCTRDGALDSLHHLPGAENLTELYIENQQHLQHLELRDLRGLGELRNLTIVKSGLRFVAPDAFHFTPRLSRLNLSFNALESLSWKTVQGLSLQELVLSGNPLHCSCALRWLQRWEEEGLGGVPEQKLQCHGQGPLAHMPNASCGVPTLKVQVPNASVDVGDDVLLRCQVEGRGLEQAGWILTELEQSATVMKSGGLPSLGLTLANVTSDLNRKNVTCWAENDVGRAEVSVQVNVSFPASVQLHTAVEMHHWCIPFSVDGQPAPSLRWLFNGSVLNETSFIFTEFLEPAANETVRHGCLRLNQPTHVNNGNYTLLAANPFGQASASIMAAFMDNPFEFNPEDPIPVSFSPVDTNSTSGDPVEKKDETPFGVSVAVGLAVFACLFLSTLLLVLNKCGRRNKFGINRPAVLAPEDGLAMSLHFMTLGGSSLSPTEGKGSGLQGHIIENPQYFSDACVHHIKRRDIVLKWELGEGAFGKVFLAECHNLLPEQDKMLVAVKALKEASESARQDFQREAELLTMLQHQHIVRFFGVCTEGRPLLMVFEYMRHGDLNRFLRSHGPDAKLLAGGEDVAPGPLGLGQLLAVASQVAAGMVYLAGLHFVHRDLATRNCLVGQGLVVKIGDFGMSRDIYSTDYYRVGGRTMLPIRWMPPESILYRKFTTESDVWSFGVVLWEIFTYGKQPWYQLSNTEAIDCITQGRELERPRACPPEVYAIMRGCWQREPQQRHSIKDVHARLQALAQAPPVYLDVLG

For `CCn1nc(C)c(NC(=O)N[C@@H]2CN(CCOC)C[C@H]2c2ccc(F)c(F)c2)c1-c1ccccc1` [Example 645, 1-((3S,4R)-4-(3,4-difluorophenyl)-1-(2-methoxyethyl)pyrrolidin-3-yl)-3-(1-ethyl-3-methyl-5-phenyl-1H-pyrazol-4-yl)urea], the IC50 was less than 0.1 µM. In turn, `COCCN1C[C@@H](NC(=O)Nc2c(Cl)c([C@@H]3CCCN3C(=O)OC(C)(C)C)nn2-c2ccccc2)[C@H](c2ccc(F)c(F)c2)C1` [Example 573, (S)-tert-butyl 2-(4-chloro-5-(3-((3S,4R)-4-(3,4-difluorophenyl)-1-(2-methoxyethyl)pyrrolidin-3-yl)ureido)-1-phenyl-1H-pyrazol-3-yl)pyrrolidine-1-carboxylate] registered a 50% inhibitory concentration (IC50) of 0.1 to 1 µM. Under `COCCN1C[C@@H](NC(=O)Nc2cc(-c3ccccc3)nn2C)[C@H](c2ccccc2)C1` (relative stereo) [Example 13, 1-(trans-1-(2-methoxyethyl)-4-phenylpyrrolidin-3-yl)-3-(1-methyl-3-phenyl-1H-pyrazol-5-yl)urea] stands less than 0.1 µM. For `COCCN1C[C@@H](NC(=O)Nc2c(C)c(-c3cnn(C)c3)nn2-c2ccccc2)[C@H](c2cnn(C)c2)C1` (relative stereo) [Example 333, 1-(1′,4-dimethyl-1-phenyl-1H,1'H-[3,4′-bipyrazol]-5-yl)-3-(trans-1-(2-methoxyethyl)-4-(1-methyl-1H-pyrazol-4-yl)pyrrolidin-3-yl)urea] the value was 0.1 to 1 µM. Under `COC[C@H](N1C[C@@H](NC(=O)Nc2c(C)c(OC[C@H](C)O)nn2-c2ccccc2)[C@H](c2ccc(F)c(F)c2)C1)C(F)(F)F` [Example 277, 1-((3S,4R)-4-(3,4-difluorophenyl)-1-((S)-1,1,1-trifluoro-3-methoxypropan-2-yl)pyrrolidin-3-yl)-3-(3-((S)-2-hydroxypropoxy)-4-methyl-1-phenyl-1H-pyrazol-5-yl)urea] stands less than 0.1 µM. `COCCN1C[C@@H](NC(=O)Nc2c(-c3ccccc3)c(OC)nn2C)[C@H](c2ccc(F)c(F)c2)C1` [Example 156, 1-((3S,4R)-4-(3,4-difluorophenyl)-1-(2-methoxyethyl)pyrrolidin-3-yl)-3-(3-methoxy-1-methyl-4-phenyl-1H-pyrazol-5-yl)urea] came in with an IC50 of less than 0.1 µM.

Molecule `COCCN1C[C@@H](NC(=O)Nc2c(C)c(OCC(C)(C)O)nn2-c2ccccc2)[C@H](c2ccc(F)cc2)C1` [Example 362, 1-((3S,4R)-4-(4-fluorophenyl)-1-(2-methoxyethyl)pyrrolidin-3-yl)-3-(3-(2-hydroxy-2-methylpropoxy)-4-methyl-1-phenyl-1H-pyrazol-5-yl)urea] had an IC50 of less than 0.1 µM. For `COCCN1C[C@@H](NC(=O)Nc2c(C3CC3)c(-c3cnn(C)c3)nn2-c2ccccc2)[C@H](c2ccc(F)c(F)c2)C1` [Example 309, 1-(4-cyclopropyl-1′-methyl-1-phenyl-1H,1′H-[3,4′-bipyrazol]-5-yl)-3-((3S,4R)-4-(3,4-difluorophenyl)-1-(2-methoxyethyl)pyrrolidin-3-yl)urea] the value was less than 0.1 µM; for `Cc1c(OCC(C)(C)O)nn(-c2ccccc2)c1NC(=O)N[C@@H]1CN(c2cn[nH]c2)C[C@H]1c1ccc(F)c(F)c1` [Example 227, 1-((3S,4R)-4-(3,4-difluorophenyl)-1-(1H-pyrazol-4-yl)pyrrolidin-3-yl)-3-(3-(2-hydroxy-2-methylpropoxy)-4-methyl-1-phenyl-1H-pyrazol-5-yl)urea], less than 0.1 µM; for `COCCN1C[C@@H](NC(=O)Nc2c(C)c([C@H]3C[C@H](O)C3)nn2-c2ccccc2)[C@H](c2cc(F)cc(F)c2)C1` [Example 457, 1-((3S,4R)-4-(3,5-difluorophenyl)-1-(2-methoxyethyl)pyrrolidin-3-yl)-3-(3-(trans-3-hydroxycyclobutyl)-4-methyl-1-phenyl-1H-pyrazol-5-yl)urea], less than 0.1 µM.

On to `CCOc1nn(-c2ccccc2)c(NC(=O)N[C@@H]2CN(CC(=O)NC)C[C@H]2c2ccc(F)c(F)c2)c1C` [Example 472, 2-((3R,4S)-3-(3,4-difluorophenyl)-4-(3-(3-ethoxy-4-methyl-1-phenyl-1H-pyrazol-5-yl)ureido)pyrrolidin-1-yl)-N-methylacetamide], for which the half-maximal inhibitory concentration (IC50) fell in the range of 0.1 to 1 µM. For `COCCN1C[C@@H](NC(=O)Nc2c(Br)c([C@H]3CCCN3C(=O)OC(C)(C)C)nn2-c2ccccc2)[C@H](c2ccc(F)c(F)c2)C1` [Example 578, (R)-tert-butyl 2-(4-bromo-5-(3-((3S,4R)-4-(3,4-difluorophenyl)-1-(2-methoxyethyl)pyrrolidin-3-yl)ureido)-1-phenyl-1H-pyrazol-3-yl)pyrrolidine-1-carboxylate] the value was 0.1 to 1 µM; for `COCCN1C[C@@H](NC(=O)Nc2cc(-c3ccccc3C)nn2C)[C@H](c2ccc(F)c(F)c2)C1` [Example 104, 1-((3S,4R)-4-(3,4-difluorophenyl)-1-(2-methoxyethyl)pyrrolidin-3-yl)-3-(1-methyl-3-o-tolyl-1H-pyrazol-5-yl) urea], less than 0.1 µM.

On to `O=C(Nc1c2c(nn1-c1ccccc1)CCC2)N[C@@H]1CN(CC(F)(F)F)C[C@H]1c1cccc(Cl)c1` (relative stereo) [Example 208, 1-((trans)-4-(3-chlorophenyl)-1-(2,2,2-trifluoroethyl)pyrrolidin-3-yl)-3-(2-phenyl-2,4,5,6-tetrahydrocyclopenta[c]pyrazol-3-yl)urea], for which the IC50 lay within 0.1 to 1 µM. For `COCCN1C[C@@H](NC(=O)Nc2c(C)c(OC[C@H]3COC(C)(C)O3)nn2-c2ccccc2)[C@H](c2cc(F)cc(F)c2)C1` [Example 393, 1-((3S,4R)-4-(3,5-difluorophenyl)-1-(2-methoxyethyl)pyrrolidin-3-yl)-3-(3-(((S)-2,2-dimethyl-1,3-dioxolan-4-yl)methoxy)-4-methyl-1-phenyl-1H-pyrazol-5-yl)urea] the value was less than 0.1 µM. For `COCCN1C[C@@H](NC(=O)Nc2c(C)c(=O)[nH]n2-c2ccccc2)[C@H](c2cc(F)cc(F)c2)C1` [Example 611, 1-((3S,4R)-4-(3,5-difluorophenyl)-1-(2-methoxyethyl)pyrrolidin-3-yl)-3-(4-methyl-5-oxo-2-phenyl-2,5-dihydro-1H-pyrazol-3-yl)urea] the value was less than 0.1 µM; for `COCCN1C[C@H](NC(=O)Nc2c3c(nn2-c2ccccc2)CCC3)[C@@H](c2cncc(F)c2)C1` [Example 338, 1-((3R,4S)-4-(5-fluoropyridin-3-yl)-1-(2-methoxyethyl)pyrrolidin-3-yl)-3-(2-phenyl-2,4,5,6-tetrahydrocyclopenta[c]pyrazol-3-yl)urea], less than 0.1 µM; for `O=C(Nc1c2c(nn1-c1ccccc1)CCC2)N[C@@H]1CN(Cc2ncc[nH]2)C[C@H]1c1ccccc1` (relative stereo) [Example 257, 1-((trans)-1-((1H-imidazol-2-yl)methyl)-4-phenylpyrrolidin-3-yl)-3-(2-phenyl-2,4,5,6-tetrahydrocyclopenta[c]pyrazol-3-yl)urea], 0.1 to 1 µM. For `COCCN1C[C@@H](NC(=O)Nc2c(Cl)c(CC(C)(C)O)nn2-c2ccccc2)[C@H](c2ccc(F)c(F)c2)C1` [Example 415, 1-(4-chloro-3-(2-hydroxy-2-methylpropyl)-1-phenyl-1H-pyrazol-5-yl)-3-((3S,4R)-4-(3,4-difluorophenyl)-1-(2-methoxyethyl)pyrrolidin-3-yl)urea] the value was less than 0.1 µM.
